Experimental data published in the NIST ThermoML archive (doi:10.1021/je060271a).
± gives the expanded uncertainty stated by the source.

Details: Liquid, Vibrating tube method

CCCC(=O)OCC(COC(=O)CCC)(COC(=O)CCC)COC(=O)CCC [pentaerythritol tetrabutyrate]
mass density (303.16 K, 34848 kPa): 1063.1 ± 1.3 kg/m3
mass density (303.17 K, 281.6 kPa): 1042.3 ± 1.2 kg/m3
mass density (303.17 K, 295.5 kPa): 1042.4 ± 1.2 kg/m3
mass density (303.17 K, 308.6 kPa): 1042.3 ± 1.2 kg/m3
mass density (303.17 K, 338.6 kPa): 1042.4 ± 1.2 kg/m3
mass density (303.17 K, 356.5 kPa): 1042.4 ± 1.2 kg/m3
mass density (303.17 K, 372.3 kPa): 1042.3 ± 1.2 kg/m3
mass density (303.17 K, 389.7 kPa): 1042.4 ± 1.2 kg/m3
mass density (303.17 K, 409.5 kPa): 1042.4 ± 1.2 kg/m3
mass density (303.17 K, 424.5 kPa): 1042.4 ± 1.2 kg/m3
mass density (303.17 K, 439.6 kPa): 1042.5 ± 1.2 kg/m3
mass density (303.17 K, 457.1 kPa): 1042.5 ± 1.2 kg/m3
mass density (303.17 K, 488.2 kPa): 1042.3 ± 1.2 kg/m3
mass density (303.17 K, 509.3 kPa): 1042.5 ± 1.2 kg/m3
mass density (303.17 K, 526.8 kPa): 1042.6 ± 1.2 kg/m3
mass density (303.17 K, 1268.4 kPa): 1043 ± 1.2 kg/m3
mass density (303.17 K, 1312 kPa): 1043 ± 1.2 kg/m3
mass density (303.17 K, 1333.8 kPa): 1043 ± 1.2 kg/m3
mass density (303.17 K, 2851.4 kPa): 1044.1 ± 1.2 kg/m3
mass density (303.17 K, 2920.2 kPa): 1044.1 ± 1.2 kg/m3
mass density (303.17 K, 4808.4 kPa): 1045.3 ± 1.2 kg/m3
mass density (303.17 K, 4819 kPa): 1045.4 ± 1.2 kg/m3
mass density (303.17 K, 4825.7 kPa): 1045.3 ± 1.2 kg/m3
mass density (303.17 K, 4829.2 kPa): 1045.3 ± 1.2 kg/m3
mass density (303.17 K, 4830.8 kPa): 1045.2 ± 1.2 kg/m3
mass density (303.17 K, 4832.3 kPa): 1045.3 ± 1.2 kg/m3
mass density (303.17 K, 4834.4 kPa): 1045.4 ± 1.2 kg/m3
mass density (303.17 K, 4836 kPa): 1045.4 ± 1.2 kg/m3
mass density (303.17 K, 4837.7 kPa): 1045.4 ± 1.2 kg/m3
mass density (303.17 K, 4839.2 kPa): 1045.4 ± 1.2 kg/m3
mass density (303.17 K, 4840.6 kPa): 1045.4 ± 1.2 kg/m3
mass density (303.17 K, 4842.7 kPa): 1045.3 ± 1.2 kg/m3
mass density (303.17 K, 6518.3 kPa): 1046.5 ± 1.3 kg/m3
mass density (303.17 K, 6547.8 kPa): 1046.4 ± 1.3 kg/m3
mass density (303.17 K, 6572.5 kPa): 1046.5 ± 1.3 kg/m3
mass density (303.17 K, 7027.7 kPa): 1046.8 ± 1.3 kg/m3
mass density (303.17 K, 7057 kPa): 1046.7 ± 1.3 kg/m3
mass density (303.17 K, 7087.6 kPa): 1046.8 ± 1.3 kg/m3
mass density (303.17 K, 7117.6 kPa): 1046.7 ± 1.3 kg/m3
mass density (303.17 K, 7147.4 kPa): 1046.8 ± 1.3 kg/m3
mass density (303.17 K, 7177.7 kPa): 1046.9 ± 1.3 kg/m3
mass density (303.17 K, 7213.5 kPa): 1046.9 ± 1.3 kg/m3
mass density (303.17 K, 7243.4 kPa): 1046.9 ± 1.3 kg/m3
mass density (303.17 K, 8394.2 kPa): 1047.6 ± 1.3 kg/m3
mass density (303.17 K, 8419.6 kPa): 1047.7 ± 1.3 kg/m3
mass density (303.17 K, 8440.8 kPa): 1047.7 ± 1.3 kg/m3
mass density (303.17 K, 8462 kPa): 1047.7 ± 1.3 kg/m3
mass density (303.17 K, 8485.6 kPa): 1047.7 ± 1.3 kg/m3
mass density (303.17 K, 9218.9 kPa): 1048 ± 1.3 kg/m3
mass density (303.17 K, 34670 kPa): 1063 ± 1.3 kg/m3
mass density (303.17 K, 34730 kPa): 1063.1 ± 1.3 kg/m3
mass density (303.17 K, 34780 kPa): 1063.1 ± 1.3 kg/m3
mass density (303.17 K, 34833 kPa): 1063.2 ± 1.3 kg/m3
mass density (323.14 K, 3021.5 kPa): 1026.7 ± 1.2 kg/m3
mass density (323.14 K, 3045.8 kPa): 1026.8 ± 1.2 kg/m3
mass density (323.14 K, 3074.9 kPa): 1026.9 ± 1.2 kg/m3
mass density (323.14 K, 3099.4 kPa): 1026.9 ± 1.2 kg/m3
mass density (323.14 K, 3124.1 kPa): 1027 ± 1.2 kg/m3
mass density (323.14 K, 3153.6 kPa): 1026.9 ± 1.2 kg/m3
mass density (323.14 K, 3179.3 kPa): 1026.9 ± 1.2 kg/m3
mass density (323.14 K, 3204.7 kPa): 1027 ± 1.2 kg/m3
mass density (323.14 K, 3230.2 kPa): 1027 ± 1.2 kg/m3
mass density (323.14 K, 3262.8 kPa): 1027.1 ± 1.2 kg/m3
mass density (323.14 K, 3289.7 kPa): 1027 ± 1.2 kg/m3
mass density (323.14 K, 3316.7 kPa): 1027.2 ± 1.2 kg/m3
mass density (323.14 K, 3376.7 kPa): 1027.2 ± 1.2 kg/m3
mass density (323.14 K, 3404.8 kPa): 1027.3 ± 1.2 kg/m3
mass density (323.14 K, 3432.9 kPa): 1027.2 ± 1.2 kg/m3
mass density (323.14 K, 3526.4 kPa): 1027.4 ± 1.2 kg/m3
mass density (323.14 K, 3592.6 kPa): 1027.3 ± 1.2 kg/m3
mass density (323.14 K, 3622.8 kPa): 1027.3 ± 1.2 kg/m3
mass density (323.14 K, 3654 kPa): 1027.4 ± 1.2 kg/m3
mass density (323.14 K, 3691.9 kPa): 1027.4 ± 1.2 kg/m3
